# Results from BindingDB's records for doi:10.1016/S0960-894X(00)80241-3 (1991).
# Assay: Inhibition of [14C]arachidonic acid conversion to 5-HETE by broken cell 5-lipoxygenase in vitro (guinea pig PMN)
row,SMILES,IC50
1,COc1ccc2c(c1C(=O)NO)Nc1ccccc1O2 [2-Methoxy-10H-phenoxazine-1-carboxylic acid hydroxyamide],420 nM
2,COC(=O)c1cccc2c1Nc1ccccc1O2 [10H-Phenoxazine-1-carboxylic acid methyl ester],770 nM
3,O=C(O)c1cccc2c1Nc1ccccc1O2 [10H-Phenoxazine-1-carboxylic acid],610 nM
4,COC(=O)c1ccc2c(c1)Nc1ccccc1O2 [10H-Phenoxazine-2-carboxylic acid methyl ester],65 nM
5,c1ccc2c(c1)Nc1ccccc1O2 [10H-Phenoxazine],20 nM

# The remaining lines, values ahead:
row,IC50,SMILES
1,87 nM,CN(O)C(=O)c1ccc2c(c1)Nc1ccccc1O2 [10H-Phenoxazine-2-carboxylic acid hydroxy-methyl-amide]
2,4600 nM,O=C(O)c1ccc2c(c1)Nc1ccccc1O2 [10H-Phenoxazine-2-carboxylic acid]
3,35 nM,CCOC(=O)/C=C/c1ccc2c(c1)Nc1ccccc1O2 [(E)-3-(10H-Phenoxazin-2-yl)-acrylic acid ethyl ester]
4,1200 nM,O=C(O)/C=C/c1ccc2c(c1)Nc1ccccc1O2 [(E)-3-(10H-Phenoxazin-2-yl)-acrylic acid]
5,85 nM,CN(O)C(=O)/C=C/c1ccc2c(c1)Nc1ccccc1O2 [(E)-N-Hydroxy-N-methyl-3-(10H-phenoxazin-2-yl)-acrylamide]
